In patent publication US5436229A, “Bisulfite adducts of arginine aldehydes” (Eli Lilly and Company, priority 1994, dated 1995):
Non-standard residues stand in square brackets, D forms with d. Residues, ends and D or L forms follow the SMILES beside them. dCha = N[C@H](CC1CCCCC1)C(=O)O

Assays:
[1] = molecular target: human thrombin (Homo sapiens, UniProt P00734); test: Thrombin amidase inhibition (Kass), chromogenic substrate; format: biochemical
Procedure, shortened: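 Purified human thrombin (8 NIH units/ml solution) mixed with compound in 50% aqueous methanol and 0.03M Tris, 0.15M NaCl, pH 7.4; chromogenic substrate (0.25 mg/ml solution) added, p-nitroaniline release followed at 405 nm. Free thrombin read from a standard curve; Kass (L/mol) is the mean over a range of compound concentrations.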

[2] = molecular target: T1, factor Xa (Homo sapiens, UniProt P00742); test: Serine protease inhibition (Kass), factor Xa; format: biochemical
T1 construct: Human factors X, Xa, IXa, XIa, and XIIa are purchased from Enzyme Research Laboratories; purchased Enzyme Research Laboratories, South Bend, Ind
Procedure, shortened: (§1)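 Chromogenic p-nitroanilide substrate assays run as for human thrombin; trypsin with N-Benzoyl-Phe-Val-Arg-p-nitroanilide, human factor Xa with N-Benzoyl-Ile-Glu-Gly-Arg-p-nitroanilide. Values are association constants (Kass).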

[3] = molecular target: T2, Bovine trypsin (Bos taurus, UniProt P00760); test: Serine protease inhibition (Kass), trypsin; format: biochemical
T2 construct: Bovine trypsin is purchased from Worthington Biochemicals; purchased Worthington Biochemicals, Freehold, N.J
T2 sequence (P00760 24-246): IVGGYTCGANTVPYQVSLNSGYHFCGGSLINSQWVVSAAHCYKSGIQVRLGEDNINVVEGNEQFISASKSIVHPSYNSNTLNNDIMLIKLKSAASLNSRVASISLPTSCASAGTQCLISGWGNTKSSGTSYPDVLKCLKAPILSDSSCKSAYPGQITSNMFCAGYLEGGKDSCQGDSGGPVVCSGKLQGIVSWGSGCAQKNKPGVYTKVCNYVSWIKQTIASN
Procedure, shortened: as §1

[4] = molecular target: T3, Human plasmin (Homo sapiens, UniProt P00747); test: Serine protease inhibition (Kass), plasmin; format: biochemical
T3 construct: Human plasmin is purchased from Boehringer Mannheim; purchased Boehringer Mannheim, Indianapolis, Ind
Procedure, shortened: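 Chromogenic enzyme assays run as for human thrombin, giving association constants (Kass). Human plasmin used with H-D-Val-Leu-Lys-p-nitroanilide; t-PA (single-chain nt-PA or modified mt-PA6) with H-D-Ile-Pro-Arg-p-nitroanilide.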

[5] = molecular target: T4, tissue plasminogen activator (t-PA) (Homo sapiens, UniProt P00750); test: Serine protease inhibition (Kass), t-PA; format: biochemical
T4 construct: purchased American Diagnostica, Greenwich, Conn

[6] = system: human plasma; test: Human plasma anticoagulation, thrombin time (TT); format: biochemical
Procedure, shortened: (§2)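 Compounds added across a wide concentration range to human plasma; APTT, PT and TT clotting times measured on a coagulation instrument, bovine thrombin used for plasma assays. Concentration doubling clotting time estimated by linear extrapolation.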

[7] = system: human plasma; test: Human plasma anticoagulation, activated partial thromboplastin time (APTT); format: biochemical
Procedure, shortened: as §2

[8] = system: human plasma; test: Human plasma anticoagulation, prothrombin time (PT); format: biochemical
Procedure, shortened: as §2

[9] = Index of Bioavailability (plasma TT AUC, oral vs i.v.); format: in vivo; conditions: rats, oral vs i.v. bolus
From the text: Assays are done in duplicate and averaged.
Each sample population represents alternating sequential time points.

T3 sequence (P00747 581-810 limits assumed): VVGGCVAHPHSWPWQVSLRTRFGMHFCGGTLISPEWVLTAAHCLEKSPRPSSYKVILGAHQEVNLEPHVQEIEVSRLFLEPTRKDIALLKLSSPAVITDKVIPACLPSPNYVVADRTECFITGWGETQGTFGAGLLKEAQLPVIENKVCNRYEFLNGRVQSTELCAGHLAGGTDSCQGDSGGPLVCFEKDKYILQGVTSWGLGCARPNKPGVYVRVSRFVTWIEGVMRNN
T3 sequence (P00747 97-580 partner limits assumed): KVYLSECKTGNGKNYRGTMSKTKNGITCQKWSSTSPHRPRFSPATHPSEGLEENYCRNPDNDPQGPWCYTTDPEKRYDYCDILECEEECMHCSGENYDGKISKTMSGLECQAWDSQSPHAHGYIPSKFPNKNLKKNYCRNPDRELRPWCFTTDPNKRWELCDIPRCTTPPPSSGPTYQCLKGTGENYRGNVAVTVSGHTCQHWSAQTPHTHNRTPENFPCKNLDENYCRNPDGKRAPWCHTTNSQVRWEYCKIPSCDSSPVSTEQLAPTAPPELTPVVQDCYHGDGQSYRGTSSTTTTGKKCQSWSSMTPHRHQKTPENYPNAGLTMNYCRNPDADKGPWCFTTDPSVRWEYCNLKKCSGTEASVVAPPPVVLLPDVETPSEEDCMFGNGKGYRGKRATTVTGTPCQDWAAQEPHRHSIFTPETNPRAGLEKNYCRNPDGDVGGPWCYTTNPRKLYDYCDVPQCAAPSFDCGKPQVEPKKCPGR
T1 sequence (P00742 235-488 limits assumed): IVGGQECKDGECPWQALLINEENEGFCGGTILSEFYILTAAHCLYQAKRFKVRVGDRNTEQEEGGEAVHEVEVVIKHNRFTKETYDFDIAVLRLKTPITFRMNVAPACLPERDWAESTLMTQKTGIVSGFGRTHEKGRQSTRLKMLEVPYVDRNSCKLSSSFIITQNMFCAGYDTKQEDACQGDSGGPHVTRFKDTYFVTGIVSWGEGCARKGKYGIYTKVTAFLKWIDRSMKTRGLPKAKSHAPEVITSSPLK
T1 sequence (P00742 41-179 partner limits assumed): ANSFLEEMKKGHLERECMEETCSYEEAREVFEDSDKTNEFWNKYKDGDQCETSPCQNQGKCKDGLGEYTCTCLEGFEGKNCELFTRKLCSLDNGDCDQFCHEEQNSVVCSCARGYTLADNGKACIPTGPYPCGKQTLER
T4 sequence (P00750 36-562): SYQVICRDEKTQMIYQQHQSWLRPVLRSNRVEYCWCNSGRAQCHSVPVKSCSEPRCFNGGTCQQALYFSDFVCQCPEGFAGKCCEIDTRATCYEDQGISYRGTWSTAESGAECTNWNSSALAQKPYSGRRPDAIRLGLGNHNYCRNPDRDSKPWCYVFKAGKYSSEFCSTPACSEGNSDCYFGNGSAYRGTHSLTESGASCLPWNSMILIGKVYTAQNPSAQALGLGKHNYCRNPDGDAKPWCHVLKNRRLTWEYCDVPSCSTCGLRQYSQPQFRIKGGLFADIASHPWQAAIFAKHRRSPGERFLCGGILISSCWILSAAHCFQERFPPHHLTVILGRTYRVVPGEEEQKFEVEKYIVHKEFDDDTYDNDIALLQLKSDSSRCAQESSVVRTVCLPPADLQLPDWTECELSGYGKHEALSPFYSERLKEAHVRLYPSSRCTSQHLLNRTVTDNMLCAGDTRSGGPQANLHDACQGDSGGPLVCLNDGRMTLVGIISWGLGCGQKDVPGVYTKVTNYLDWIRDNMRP

SMILES | Kass Human Thrombin [1] [L/mol × 10^6] | Kass Xa [2] [L/mol × 10^6] | Kass Trypsin [3] [L/mol × 10^6] | Kass Plasmin [4] [L/mol × 10^6] | Kass t-PA [5] [L/mol × 10^6] | 2 × Clotting time TT [6] [ng/mL] | 2 × Clotting time APTT [7] | 2 × Clotting time PT [8] | Percent Relative Activity (Index of Bioavailability) [9] [%]
Cl.N=C(N)NCCC[C@@H](C=O)NC(=O)[C@@H]1CCCN1C(=O)[C@@H](Cc1ccccc1)NS(=O)(=O)c1ccccc1 [Example 57, N-(phenylsulfonyl)-D-phenylalanyl-L-Prolinyl-L-Arginine Aldehyde Hydrochloride] | 270 | 3.6 | 180 | 19 | 2.3 | 14 | 450 ng/mL | 930 ng/mL | 3
Cl.N=C(N)NCCC[C@@H](C=O)NC(=O)[C@@H]1CCCN1C(=O)[C@@H](Cc1ccccc1)NS(=O)(=O)c1ccc(F)cc1F [Example 58, N-(2,4-difluorophenylsulfonyl)-D-phenylalanyl-L-Prolinyl-L-Arginine Aldehyde Hydrochloride] | 230 | 11 | 160 | 25 | 2.4 | 21 | 350 ng/mL | 940 ng/mL | 6
Cl.N=C(N)NCCC[C@@H](C=O)NC(=O)[C@@H]1CCCN1C(=O)[C@@H](Cc1ccccc1)NS(=O)(=O)c1ccc(C(=O)O)cc1 [Example 62, N-(4-carboxyphenylsulfonyl)-D-phenylalanyl-L-Prolinyl-L-Arginine Aldehyde Hydrochloride] | 70 | 2.0 | 43 | 7.0 | 1.1 | 120 | 1,200 ng/mL | 3,000 ng/mL | 13
CCS(=O)(=O)N[C@H](CC1CCCCC1)C(=O)N1CCC[C@H]1C(=O)N[C@H](C=O)CCCNC(=N)N.Cl [Example 65, N-(ethylsulfonyl)-D-cyclohexylalanyl-L-Prolinyl-L-Arginine Aldehyde Hydrochloride] | 550 | 20 | 200 | 45 | 0.73 | 25 | 260 ng/mL | 730 ng/mL | 19
CC(=O)N[C@H](CC1CCCCC1)C(=O)N1CCC[C@H]1C(=O)N[C@H](C=O)CCCNC(=N)N.Cl [Example 72, N-(acetyl)-D-cyclohexylalanyl-L-Prolinyl-L-Arginine Aldehyde Hydrochloride] (Ac-[dCha]-Pro-Arg-aldehyde) | 26 | 1.1 | 12 | 0.61 | 0.035 | 92 | 1,900 ng/mL | 3,500 ng/mL | 9
Cl.N=C(N)NCCC[C@@H](C=O)NC(=O)[C@@H]1CCCN1C(=O)[C@@H](Cc1ccccc1)NCC1CCCCC1 [Example 74, N-(cyclohexylmethyl)-D-phenylalanyl-L-Prolinyl-L-Arginine Aldehyde Hydrochloride] | 480 | 0.11 | 69 | 0.49 | 0.046 | 16 | 860 ng/mL | 1,200 ng/mL | 1
CCOC(=O)N[C@H](Cc1ccccc1)C(=O)N1CCC[C@H]1C(=O)N[C@H](C=O)CCCNC(=N)N.Cl [Example 77, N-(ethoxycarbonyl)-D-phenylalanyl-L-Prolinyl-L-Arginine Aldehyde Hydrochloride] | 170 | 2.3 | 240 | 16 | 2.5 | 22 | 390 ng/mL | 2,000 ng/mL | 14
